Assay results taken from ChEMBL document CHEMBL3885861, “Open TG-GATES”.

Species on record: Rattus norvegicus
Test: Open TG-GATES - Regimen: Single
Format: toxicity, organism-based, Sprague-Dawley
Design: regimen Single, gender Male, age 6 weeks
Conditions: in vivo, po, route gavage; for APTT / Bas / Eos / Fbg / Hb / Ht / Lym / MCH / MCHC / MCV / Mono / Neu / PT / Plat / RBC / Ret / WBC: tissue Blood; for KIDNEY_L / KIDNEY_R / KIDNEY_TOTAL: tissue Kidney; for LIVER: tissue Liver; for A/G / ALP / ALT / AST / BUN / CRE / Ca / Cl / DBIL / GLC / IP / K / LDH / Na / PL / RALB / TBIL / TC / TG / TP / gamma-GTP: tissue Plasma
[1] = 300 mg/kg, 3 h, dose level Middle
[2] = 300 mg/kg, 6 h, dose level Middle
[3] = 300 mg/kg, 9 h, dose level Middle
[4] = 300 mg/kg, 24 h, dose level Middle
[5] = 1000 mg/kg, 3 h, dose level High
[6] = 1000 mg/kg, 6 h, dose level High
[7] = 1000 mg/kg, 9 h, dose level High
[8] = 1000 mg/kg, 24 h, dose level High

CC(S)C(=O)NCC(=O)O (centres undefined) [TIOPRONIN]
TERMINAL_BW [1]: 211.9 g
APTT [1]: 22.7 s
Bas [1]: 0%
Eos [1]: 0.4%
Fbg [1]: 295.4 mg/dL
Hb [1]: 12.8 g/dL
Ht [1]: 39.7%
Lym [1]: 77.8%
MCH [1]: 20.3 pg
MCHC [1]: 32.2%
MCV [1]: 63 fL
Mono [1]: 2.6%
Neu [1]: 18.4%
PT [1]: 16.8 s
Plat [1]: 116 x10_4/uL
RBC [1]: 631.6 x10_4/ul
Ret [1]: 7.7%
WBC [1]: 76.7 x10_2/uL
KIDNEY_L [1]: 0.9 g
KIDNEY_R [1]: 1 g
KIDNEY_TOTAL [1]: 1.9 g
LIVER [1]: 9.7 g
A/G [1]: 1.2
ALP [1]: 1446.8 IU/L
ALT [1]: 65.2 IU/L
AST [1]: 83.6 IU/L
BUN [1]: 10.8 mg/dL
CRE [1]: 0.1 mg/dL
Ca [1]: 10.7 mg/dL
Cl [1]: 106.2 meq/L
DBIL [1]: 0.002 mg/dL
GLC [1]: 194.8 mg/dL
IP [1]: 7.9 mg/dL
K [1]: 3.9 meq/L
LDH [1]: 169.4 IU/L
Na [1]: 142.2 meq/L
PL [1]: 125.2 mg/dL
RALB [1]: 3 g/dL
TBIL [1]: 0.02 mg/dL
TC [1]: 73.6 mg/dL
TG [1]: 47 mg/dL
TP [1]: 5.4 g/dL
gamma-GTP [1]: 2 IU/L
TERMINAL_BW [2]: 212 g
APTT [2]: 21.2 s
Bas [2]: 0%
Eos [2]: 0.8%
Fbg [2]: 290.4 mg/dL
Hb [2]: 12.6 g/dL
Ht [2]: 38.8%
Lym [2]: 80.4%
MCH [2]: 20.2 pg
MCHC [2]: 32.5%
MCV [2]: 62.2 fL
Mono [2]: 2.6%
Neu [2]: 15.4%
PT [2]: 16.9 s
Plat [2]: 121.4 x10_4/uL
RBC [2]: 625 x10_4/ul
Ret [2]: 8%
WBC [2]: 77.2 x10_2/uL
KIDNEY_L [2]: 0.9 g
KIDNEY_R [2]: 1 g
KIDNEY_TOTAL [2]: 1.9 g
LIVER [2]: 9.2 g
A/G [2]: 1.2
ALP [2]: 1527 IU/L
ALT [2]: 58 IU/L
AST [2]: 73 IU/L
BUN [2]: 8.4 mg/dL
CRE [2]: 0.1 mg/dL
Ca [2]: 10.8 mg/dL
Cl [2]: 107.4 meq/L
DBIL [2]: 0 mg/dL
GLC [2]: 191.6 mg/dL
IP [2]: 9.6 mg/dL
K [2]: 4.4 meq/L
LDH [2]: 154.2 IU/L
Na [2]: 142.2 meq/L
PL [2]: 117.2 mg/dL
RALB [2]: 2.9 g/dL
TBIL [2]: 0.022 mg/dL
TC [2]: 67.2 mg/dL
TG [2]: 59.4 mg/dL
TP [2]: 5.3 g/dL
gamma-GTP [2]: 1.8 IU/L
TERMINAL_BW [3]: 208.1 g
APTT [3]: 23.7 s
Bas [3]: 0%
Eos [3]: 0.4%
Fbg [3]: 293.4 mg/dL
Hb [3]: 12.9 g/dL
Ht [3]: 40.3%
Lym [3]: 77.8%
MCH [3]: 20.7 pg
MCHC [3]: 32.1%
MCV [3]: 64.6 fL
Mono [3]: 2.4%
Neu [3]: 18.6%
PT [3]: 16.3 s
Plat [3]: 118 x10_4/uL
RBC [3]: 624 x10_4/ul
Ret [3]: 7.7%
WBC [3]: 77 x10_2/uL
KIDNEY_L [3]: 0.9 g
KIDNEY_R [3]: 1 g
KIDNEY_TOTAL [3]: 1.9 g
LIVER [3]: 8.1 g
A/G [3]: 1.2
ALP [3]: 1363.8 IU/L
ALT [3]: 52.8 IU/L
AST [3]: 75 IU/L
BUN [3]: 10.6 mg/dL
CRE [3]: 0.1 mg/dL
Ca [3]: 10.6 mg/dL
Cl [3]: 107.4 meq/L
DBIL [3]: 0.008 mg/dL
GLC [3]: 191.4 mg/dL
IP [3]: 9.8 mg/dL
K [3]: 4.2 meq/L
LDH [3]: 194.2 IU/L
Na [3]: 143.2 meq/L
PL [3]: 110.6 mg/dL
RALB [3]: 2.8 g/dL
TBIL [3]: 0.02 mg/dL
TC [3]: 63.4 mg/dL
TG [3]: 42.2 mg/dL
TP [3]: 5.3 g/dL
gamma-GTP [3]: 1.2 IU/L
TERMINAL_BW [4]: 227.3 g
APTT [4]: 21.1 s
Bas [4]: 0%
Eos [4]: 0.8%
Fbg [4]: 312.6 mg/dL
Hb [4]: 12.7 g/dL
Ht [4]: 38.9%
Lym [4]: 80%
MCH [4]: 20.4 pg
MCHC [4]: 32.7%
MCV [4]: 62.2 fL
Mono [4]: 3%
Neu [4]: 15%
PT [4]: 16.1 s
Plat [4]: 113.7 x10_4/uL
RBC [4]: 624.6 x10_4/ul
Ret [4]: 7.4%
WBC [4]: 100.8 x10_2/uL
KIDNEY_L [4]: 1 g
KIDNEY_R [4]: 1 g
KIDNEY_TOTAL [4]: 1.9 g
LIVER [4]: 10.4 g
A/G [4]: 1.2
ALP [4]: 1662.2 IU/L
ALT [4]: 41.8 IU/L
AST [4]: 72.4 IU/L
BUN [4]: 14.6 mg/dL
CRE [4]: 0.2 mg/dL
Ca [4]: 10.8 mg/dL
Cl [4]: 106.4 meq/L
DBIL [4]: 0 mg/dL
GLC [4]: 193.6 mg/dL
IP [4]: 7.6 mg/dL
K [4]: 4.4 meq/L
LDH [4]: 161.6 IU/L
Na [4]: 142.6 meq/L
PL [4]: 143.2 mg/dL
RALB [4]: 3 g/dL
TBIL [4]: 0.018 mg/dL
TC [4]: 81.6 mg/dL
TG [4]: 102.4 mg/dL
TP [4]: 5.6 g/dL
gamma-GTP [4]: 1.2 IU/L
TERMINAL_BW [5]: 213.5 g
APTT [5]: 23 s
Bas [5]: 0%
Eos [5]: 0.4%
Fbg [5]: 307.8 mg/dL
Hb [5]: 13 g/dL
Ht [5]: 40.2%
Lym [5]: 75.8%
MCH [5]: 20.5 pg
MCHC [5]: 32.3%
MCV [5]: 63.5 fL
Mono [5]: 4%
Neu [5]: 18%
PT [5]: 17.1 s
Plat [5]: 120.4 x10_4/uL
RBC [5]: 633.8 x10_4/ul
Ret [5]: 8%
WBC [5]: 75.4 x10_2/uL
KIDNEY_L [5]: 0.9 g
KIDNEY_R [5]: 0.9 g
KIDNEY_TOTAL [5]: 1.8 g
LIVER [5]: 9.2 g
A/G [5]: 1.1
ALP [5]: 1422.8 IU/L
ALT [5]: 95.4 IU/L
AST [5]: 90 IU/L
BUN [5]: 11.2 mg/dL
CRE [5]: 0.1 mg/dL
Ca [5]: 10.4 mg/dL
Cl [5]: 106.8 meq/L
DBIL [5]: 0 mg/dL
GLC [5]: 199.4 mg/dL
IP [5]: 9.1 mg/dL
K [5]: 4 meq/L
LDH [5]: 232.2 IU/L
Na [5]: 141.4 meq/L
PL [5]: 115.4 mg/dL
RALB [5]: 2.8 g/dL
TBIL [5]: 0.008 mg/dL
TC [5]: 69 mg/dL
TG [5]: 52.8 mg/dL
TP [5]: 5.3 g/dL
gamma-GTP [5]: 1.8 IU/L
TERMINAL_BW [6]: 211.1 g
APTT [6]: 23.4 s
Bas [6]: 0%
Eos [6]: 0.4%
Fbg [6]: 291.4 mg/dL
Hb [6]: 12.9 g/dL
Ht [6]: 39.5%
Lym [6]: 76.2%
MCH [6]: 20.3 pg
MCHC [6]: 32.6%
MCV [6]: 62.4 fL
Mono [6]: 3.2%
Neu [6]: 18.6%
PT [6]: 17.6 s
Plat [6]: 120 x10_4/uL
RBC [6]: 632.6 x10_4/ul
Ret [6]: 8.1%
WBC [6]: 99 x10_2/uL
KIDNEY_L [6]: 0.9 g
KIDNEY_R [6]: 0.9 g
KIDNEY_TOTAL [6]: 1.9 g
LIVER [6]: 8.2 g
A/G [6]: 1.2
ALP [6]: 1452 IU/L
ALT [6]: 77.2 IU/L
AST [6]: 78 IU/L
BUN [6]: 9 mg/dL
CRE [6]: 0.1 mg/dL
Ca [6]: 10.3 mg/dL
Cl [6]: 107 meq/L
DBIL [6]: 0.002 mg/dL
GLC [6]: 196 mg/dL
IP [6]: 9.3 mg/dL
K [6]: 4.1 meq/L
LDH [6]: 147.4 IU/L
Na [6]: 140.4 meq/L
PL [6]: 100.4 mg/dL
RALB [6]: 2.8 g/dL
TBIL [6]: 0.016 mg/dL
TC [6]: 59.8 mg/dL
TG [6]: 31.6 mg/dL
TP [6]: 5.2 g/dL
gamma-GTP [6]: 1.8 IU/L
TERMINAL_BW [7]: 211.2 g
APTT [7]: 23.6 s
Bas [7]: 0%
Eos [7]: 0.2%
Fbg [7]: 271.2 mg/dL
Hb [7]: 12.6 g/dL
Ht [7]: 39.2%
Lym [7]: 74.6%
MCH [7]: 20.3 pg
MCHC [7]: 32%
MCV [7]: 63.2 fL
Mono [7]: 1.4%
Neu [7]: 23.4%
PT [7]: 17.6 s
Plat [7]: 123.5 x10_4/uL
RBC [7]: 621.6 x10_4/ul
Ret [7]: 7.4%
WBC [7]: 71.9 x10_2/uL
KIDNEY_L [7]: 1 g
KIDNEY_R [7]: 1 g
KIDNEY_TOTAL [7]: 1.9 g
LIVER [7]: 7.8 g
A/G [7]: 1.2
ALP [7]: 1385.8 IU/L
ALT [7]: 69.4 IU/L
AST [7]: 80.6 IU/L
BUN [7]: 9.4 mg/dL
CRE [7]: 0.1 mg/dL
Ca [7]: 10.5 mg/dL
Cl [7]: 106.8 meq/L
DBIL [7]: 0.006 mg/dL
GLC [7]: 188.2 mg/dL
IP [7]: 9.1 mg/dL
K [7]: 4.3 meq/L
LDH [7]: 160.4 IU/L
Na [7]: 140.8 meq/L
PL [7]: 98.6 mg/dL
RALB [7]: 2.8 g/dL
TBIL [7]: 0.018 mg/dL
TC [7]: 55.6 mg/dL
TG [7]: 40.4 mg/dL
TP [7]: 5.2 g/dL
gamma-GTP [7]: 1.2 IU/L
TERMINAL_BW [8]: 228 g
APTT [8]: 22.3 s
Bas [8]: 0%
Eos [8]: 1%
Fbg [8]: 307.2 mg/dL
Hb [8]: 12.8 g/dL
Ht [8]: 39.1%
Lym [8]: 76.8%
MCH [8]: 20.2 pg
MCHC [8]: 32.6%
MCV [8]: 62.1 fL
Mono [8]: 3.2%
Neu [8]: 18%
PT [8]: 16.2 s
Plat [8]: 115.2 x10_4/uL
RBC [8]: 630.2 x10_4/ul
Ret [8]: 7.7%
WBC [8]: 117.2 x10_2/uL
KIDNEY_L [8]: 1 g
KIDNEY_R [8]: 1 g
KIDNEY_TOTAL [8]: 2 g
LIVER [8]: 10.2 g
A/G [8]: 1.2
ALP [8]: 1503 IU/L
ALT [8]: 47 IU/L
AST [8]: 76.6 IU/L
BUN [8]: 16.2 mg/dL
CRE [8]: 0.2 mg/dL
Ca [8]: 10.8 mg/dL
Cl [8]: 107.4 meq/L
DBIL [8]: 0 mg/dL
GLC [8]: 181.6 mg/dL
IP [8]: 7.4 mg/dL
K [8]: 4.6 meq/L
LDH [8]: 176.2 IU/L
Na [8]: 142.6 meq/L
PL [8]: 138.8 mg/dL
RALB [8]: 2.9 g/dL
TBIL [8]: 0.008 mg/dL
TC [8]: 76.8 mg/dL
TG [8]: 117 mg/dL
TP [8]: 5.4 g/dL
gamma-GTP [8]: 1.4 IU/L
